Earlier results in patent publication US20210322558A1, “PHENYLEPHRINE RESINATE PARTICLES AND USE THEREOF IN PHARMACEUTICAL FORMULATIONS” (JOHNSON & JOHNSON CONSUMER INC., priority 2013, published 2021).

Key:
[1] = 30 mg dose administered orally over eight hours

SMILES	fraction of a therapeutic dose excreted unchanged in the urine	metabolized to m-hydroxy-phenylglycol-sulfate, % of the dose [1] [%]	metabolized to m-hydroxymandelic acid, % of the dose [1] [%]	metabolized to phenylephrine-glucuronide, % of the dose [1] [%]	metabolized to phenylephrine-sulfate, % of the dose [1] [%]
CC(=O)Nc1ccc(O)cc1 [acetaminophen]	Less than 9%	–	–	–	–
CNC[C@H](O)c1cccc(O)c1.Cl [phenylephrine, (R)-1-(3-hydroxyphenyl)-2-methylaminoethanol]	–	6	30	12	47
